# Values joined by “and” are separate entries in the source; they are usually repeats but may differ in a detail not shown here. Equal values may be shown once.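 Where inhibition never reached the appropriate level, the endpoint shown equals the highest concentration tested. Otherwise, values were interpolated linearly from a five-concentration, 48-hour dose response in 96-well plates. At the GI50, growth is halved. TGI: total growth inhibition.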
# Assays:
# Assay in all cases: NCI-60 cell line screen, 48 h
# NCI-H522 lung = system: NCI-H522 lung
# SK-OV-3 ovarian = system: SK-OV-3 ovarian
# KM12 colon = system: KM12 colon
# 786-0 renal = system: 786-0 renal
# BT-549 breast = system: BT-549 breast
# SF-539 CNS = system: SF-539 CNS
# MCF7 breast = system: MCF7 breast
# RPMI-8226 leukemia = system: RPMI-8226 leukemia
# NCI-H460 lung = system: NCI-H460 lung
# SF-295 CNS = system: SF-295 CNS
# SF-268 CNS = system: SF-268 CNS
# NCI-H226 lung = system: NCI-H226 lung
# PC-3 prostate = system: PC-3 prostate
# OVCAR-8 ovarian = system: OVCAR-8 ovarian
# SNB-19 CNS = system: SNB-19 CNS
# SW-620 colon = system: SW-620 colon
# SN12C renal = system: SN12C renal
# OVCAR-5 ovarian = system: OVCAR-5 ovarian
# SK-MEL-5 melanoma = system: SK-MEL-5 melanoma
# MALME-3M melanoma = system: MALME-3M melanoma
# LOX IMVI melanoma = system: LOX IMVI melanoma
# A498 renal = system: A498 renal
# ACHN renal = system: ACHN renal
# K-562 leukemia = system: K-562 leukemia
# M14 melanoma = system: M14 melanoma
# SK-MEL-28 melanoma = system: SK-MEL-28 melanoma
# SK-MEL-2 melanoma = system: SK-MEL-2 melanoma
# UACC-62 melanoma = system: UACC-62 melanoma
# HOP-62 NSCLC = system: HOP-62 NSCLC
# HCC-2998 colon = system: HCC-2998 colon
# SR leukemia = system: SR leukemia
# RXF 393 renal = system: RXF 393 renal
# DU-145 prostate = system: DU-145 prostate
# CAKI-1 renal = system: CAKI-1 renal
# MDA-MB-435 = system: MDA-MB-435
# HL-60(TB) leukemia = system: HL-60(TB) leukemia
# COLO 205 colon = system: COLO 205 colon
# SNB-75 CNS = system: SNB-75 CNS
# HOP-92 NSCLC = system: HOP-92 NSCLC
# UO-31 renal = system: UO-31 renal
# HS 578T breast = system: HS 578T breast
# HCT-116 colon = system: HCT-116 colon
# U251 CNS = system: U251 CNS
# EKVX NSCLC = system: EKVX NSCLC
# MDA-N = system: MDA-N
# IGROV1 ovarian = system: IGROV1 ovarian
# A549 NSCLC = system: A549 NSCLC
# TK-10 renal = system: TK-10 renal
# OVCAR-3 ovarian = system: OVCAR-3 ovarian
# HT29 colon = system: HT29 colon
# NCI-H23 lung = system: NCI-H23 lung
# MDA-MB-231 breast = system: MDA-MB-231 breast
# UACC-257 melanoma = system: UACC-257 melanoma
# HCT-15 colon = system: HCT-15 colon
# NCI/ADR-RES ovarian = system: NCI/ADR-RES ovarian
# OVCAR-4 ovarian = system: OVCAR-4 ovarian
# CCRF-CEM leukemia = system: CCRF-CEM leukemia
# MOLT-4 leukemia = system: MOLT-4 leukemia
# T-47D breast = system: T-47D breast
compound,measurement,setting,value
NC(=O)c1ccc(NCC2=CC(=O)C=CC2=O)cc1,TGI,NCI-H522 lung,47.5 µM
same,TGI,SK-OV-3 ovarian,> 100000 nM
same,TGI,KM12 colon,> 100 µM
same,TGI,786-0 renal,38500 nM
same,TGI,BT-549 breast,36.2 µM
same,TGI,SF-539 CNS,32.9 µM
same,TGI,MCF7 breast,59.1 µM
same,TGI,RPMI-8226 leukemia,54.6 µM
same,TGI,NCI-H460 lung,> 100000 nM
same,TGI,SF-295 CNS,> 100 µM
same,TGI,SF-268 CNS,50.9 µM
same,TGI,NCI-H226 lung,> 100 µM
same,TGI,PC-3 prostate,32.7 µM
same,TGI,OVCAR-8 ovarian,50.7 µM
same,TGI,SNB-19 CNS,> 100 µM
same,TGI,SW-620 colon,44 µM
same,TGI,SN12C renal,41.3 µM
same,TGI,OVCAR-5 ovarian,52.9 µM
same,TGI,SK-MEL-5 melanoma,30200 nM
same,TGI,MALME-3M melanoma,36.6 µM
same,TGI,LOX IMVI melanoma,32.5 µM
same,TGI,A498 renal,> 100 µM
same,TGI,ACHN renal,31600 nM
same,TGI,K-562 leukemia,49.1 µM
same,TGI,M14 melanoma,31300 nM
same,TGI,SK-MEL-28 melanoma,36.9 µM
same,TGI,SK-MEL-2 melanoma,39.8 µM
same,TGI,UACC-62 melanoma,35.6 µM
same,TGI,HOP-62 NSCLC,> 100 µM
same,TGI,HCC-2998 colon,> 100 µM
same,TGI,SR leukemia,56.4 µM
same,TGI,RXF 393 renal,41 µM
same,TGI,DU-145 prostate,> 100 µM
same,TGI,CAKI-1 renal,34.2 µM
same,TGI,MDA-MB-435,32.1 µM
same,TGI,HL-60(TB) leukemia,30.3 µM
same,TGI,COLO 205 colon,36.2 µM
same,TGI,SNB-75 CNS,36.2 µM
same,TGI,HOP-92 NSCLC,40.7 µM
same,TGI,UO-31 renal,31800 nM
same,TGI,HS 578T breast,75.2 µM
same,TGI,HCT-116 colon,36.1 µM
same,TGI,U251 CNS,45.1 µM
same,TGI,EKVX NSCLC,34.3 µM
same,TGI,MDA-N,31.8 µM
same,TGI,IGROV1 ovarian,44.7 µM
same,TGI,A549 NSCLC,> 100 µM
same,TGI,TK-10 renal,32.7 µM
same,TGI,OVCAR-3 ovarian,31 µM
same,TGI,HT29 colon,47.7 µM
same,TGI,NCI-H23 lung,51.7 µM
same,TGI,MDA-MB-231 breast,37.5 µM
same,TGI,UACC-257 melanoma,43.1 µM
same,TGI,HCT-15 colon,38300 nM
same,TGI,NCI/ADR-RES ovarian,71.4 µM
same,TGI,OVCAR-4 ovarian,42.4 µM
same,TGI,CCRF-CEM leukemia,50.8 µM
same,TGI,MOLT-4 leukemia,67.9 µM
same,TGI,T-47D breast,68.9 µM
c1ccc(-c2cccc(-c3ccccn3)n2)nc1,TGI,NCI-H522 lung,> 10 µM and 19.3 µM
same,GI50,SK-OV-3 ovarian,89.5 nM
same,TGI,SK-OV-3 ovarian,2050 nM and 2420 nM
same,GI50,KM12 colon,75.1 nM
same,TGI,KM12 colon,2.27 µM and 13.7 µM
same,GI50,786-0 renal,113 nM
same,TGI,786-0 renal,2870 nM and 2030 nM
same,GI50,BT-549 breast,225 nM
same,TGI,BT-549 breast,13.6 µM
same,GI50,SF-539 CNS,243 nM
same,TGI,SF-539 CNS,2.07 µM and 13.3 µM
same,TGI,MCF7 breast,> 10 µM
same,TGI,RPMI-8226 leukemia,> 10 µM and 95.1 µM
same,GI50,NCI-H460 lung,60.4 nM
same,TGI,NCI-H460 lung,1350 nM and 2510 nM
same,GI50,SF-295 CNS,78.5 nM
same,TGI,SF-295 CNS,0.791 µM and 3.87 µM
same,GI50,SF-268 CNS,81.4 nM
same,TGI,SF-268 CNS,> 10 µM and 15.8 µM
same,GI50,NCI-H226 lung,275 nM
same,TGI,NCI-H226 lung,4.85 µM
same,GI50,PC-3 prostate,170 nM
same,TGI,PC-3 prostate,3.76 µM and 15.4 µM
same,GI50,OVCAR-8 ovarian,145 nM
same,GI50,SNB-19 CNS,293 nM
same,TGI,SNB-19 CNS,> 10 µM and 16.7 µM
same,GI50,SW-620 colon,198 nM
same,TGI,SW-620 colon,4.54 µM and 14 µM
same,GI50,SN12C renal,220 nM
same,TGI,SN12C renal,9.77 µM and 16.2 µM
same,GI50,OVCAR-5 ovarian,403 nM
same,TGI,OVCAR-5 ovarian,3.72 µM and 22 µM
same,GI50,SK-MEL-5 melanoma,122 nM
same,TGI,SK-MEL-5 melanoma,680 nM and 1180 nM
same,TGI,MALME-3M melanoma,1.11 µM and 3.48 µM
same,GI50,LOX IMVI melanoma,57.3 nM
same,TGI,LOX IMVI melanoma,12.5 µM
same,GI50,A498 renal,1380 nM
same,TGI,A498 renal,2.31 µM and 3.27 µM
same,GI50,ACHN renal,56.7 nM
same,TGI,ACHN renal,1750 nM and 1890 nM
same,TGI,K-562 leukemia,> 100 µM
same,GI50,M14 melanoma,92.4 nM
same,TGI,M14 melanoma,434 nM and 1070 nM
same,GI50,SK-MEL-28 melanoma,182 nM
same,TGI,SK-MEL-28 melanoma,3.25 µM and 15 µM
same,GI50,SK-MEL-2 melanoma,425 nM
same,TGI,SK-MEL-2 melanoma,3.64 µM and 18.6 µM
same,GI50,UACC-62 melanoma,243 nM
same,TGI,UACC-62 melanoma,2.93 µM and 4.24 µM
same,GI50,HOP-62 NSCLC,130 nM
same,TGI,HOP-62 NSCLC,1.72 µM and 12.8 µM
same,GI50,HCC-2998 colon,94.4 nM
same,GI50,SR leukemia,60 nM
same,TGI,RXF 393 renal,1.41 µM and 7.32 µM
same,GI50,DU-145 prostate,86.3 nM
same,TGI,DU-145 prostate,15.6 µM
same,TGI,CAKI-1 renal,1.61 µM
same,TGI,MDA-MB-435,2.28 µM and 18.4 µM
same,GI50,HL-60(TB) leukemia,112 nM
same,GI50,COLO 205 colon,37.6 nM
same,TGI,COLO 205 colon,1.67 µM and 5.84 µM
same,GI50,SNB-75 CNS,234 nM
same,TGI,SNB-75 CNS,> 10 µM and 17.7 µM
same,GI50,HOP-92 NSCLC,3.57 µM
same,TGI,HOP-92 NSCLC,19.8 µM
same,GI50,UO-31 renal,37.3 nM
same,TGI,UO-31 renal,425 nM and 1290 nM
same,GI50,HS 578T breast,2550 nM
same,TGI,HS 578T breast,> 10 µM and 47.6 µM
same,TGI,HCT-116 colon,1.56 µM
same,GI50,U251 CNS,90.1 nM
same,TGI,U251 CNS,2.86 µM and 13.4 µM
same,GI50,EKVX NSCLC,111 nM
same,TGI,EKVX NSCLC,4.89 µM and 10.9 µM
same,TGI,MDA-N,2.19 µM
same,GI50,IGROV1 ovarian,76.5 nM
same,TGI,IGROV1 ovarian,2.97 µM and 11.7 µM
same,GI50,A549 NSCLC,225 nM
same,TGI,A549 NSCLC,4.91 µM and 13 µM
same,GI50,TK-10 renal,59.5 nM
same,TGI,TK-10 renal,3 µM and 7.89 µM
same,GI50,OVCAR-3 ovarian,110 nM
same,GI50,HT29 colon,84.8 nM
same,TGI,HT29 colon,3.05 µM and 15.7 µM
same,TGI,NCI-H23 lung,> 10 µM and 64.2 µM
same,GI50,MDA-MB-231 breast,86 nM
same,TGI,MDA-MB-231 breast,1.89 µM and 15.2 µM
same,GI50,UACC-257 melanoma,337 nM
same,TGI,UACC-257 melanoma,1.65 µM and 5.46 µM
same,GI50,HCT-15 colon,54.6 nM
same,TGI,HCT-15 colon,1400 nM and 2980 nM
same,GI50,NCI/ADR-RES ovarian,161 nM
same,TGI,NCI/ADR-RES ovarian,1.22 µM and 8.76 µM
same,GI50,OVCAR-4 ovarian,83.9 nM
same,TGI,OVCAR-4 ovarian,3.48 µM and 13.7 µM
same,GI50,CCRF-CEM leukemia,58 nM
same,TGI,CCRF-CEM leukemia,> 100 µM
same,GI50,MOLT-4 leukemia,65.8 nM
same,TGI,MOLT-4 leukemia,> 100 µM
same,GI50,T-47D breast,343 nM
same,TGI,T-47D breast,> 10 µM and 12.7 µM

# — PubChem BioAssay (NCI)
